Laboratory results taken from ChEMBL document CHEMBL1132366, “Conceptually new sulfone analogues of the hormone 1alpha, 25-dihydroxyvitamin D(3): synthesis and preliminary biological evaluation” (J Med Chem, 1999).

Experiments:
[1] = biological target: T1, Vitamin D3 receptor (Rattus norvegicus) (UniProt P13053); assay: Vitamin D3 receptor-mediated transcriptional potency in rat osteosarcoma ROS 17/2.8 cells
T1 sequence (whole entry): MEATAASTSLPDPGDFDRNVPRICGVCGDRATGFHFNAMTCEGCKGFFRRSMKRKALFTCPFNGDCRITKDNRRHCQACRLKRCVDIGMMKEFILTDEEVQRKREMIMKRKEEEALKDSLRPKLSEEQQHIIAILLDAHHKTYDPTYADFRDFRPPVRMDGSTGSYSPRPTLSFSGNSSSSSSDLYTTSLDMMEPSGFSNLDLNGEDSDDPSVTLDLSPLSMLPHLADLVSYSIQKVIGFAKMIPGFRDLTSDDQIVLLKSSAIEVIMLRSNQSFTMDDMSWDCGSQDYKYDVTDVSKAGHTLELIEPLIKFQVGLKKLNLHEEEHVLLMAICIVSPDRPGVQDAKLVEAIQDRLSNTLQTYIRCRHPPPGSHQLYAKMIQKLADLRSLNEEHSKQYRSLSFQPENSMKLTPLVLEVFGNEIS

[2] = biological target: T1, Vitamin D3 receptor (Rattus norvegicus); assay: Binding affinity for vitamin D3 receptor compared to 1,25D3 (100%)

| ED50 [1] | Affinity [2] | Compound |
| --- | --- | --- |
| 4 nM | 4% | C=C1/C(=C/C=C2/CCC[C@]3(C)C([C@H](C)C/C=C(/F)S(=O)(=O)C(C)(C)C)=CC[C@@H]23)CC(O)CC1O (some centres not stated) |
| 0.8 nM | 21% | C=C1/C(=C/C=C2/CCC[C@]3(C)C([C@H](C)CCS(=O)(=O)C(C)(C)C)=CC[C@@H]23)C[C@@H](O)C[C@@H]1O |
| 0.65 nM | 7.9% | C=C1/C(=C/C=C2/CCC[C@]3(C)C([C@H](C)CCC(F)(F)S(=O)(=O)C(C)(C)C)=CC[C@@H]23)C[C@@H](O)C[C@@H]1O |
| 0.35 nM | – | C=C1C(=CC=C2CCC[C@]3(C)[C@@H]([C@H](C)CCCC(C)(C)O)CC[C@@H]23)C[C@@H](O)C[C@@H]1O |
